Where two headings read alike, the source gives them in different places.
How the values were obtained:
5HT2C receptors = molecular target: T1, 5HT2C receptors (Homo sapiens, UniProt P28335); assay: Human 5-HT2C functional high throughput screening assay in CHO-K1 cells (calcium flux); format: cell-based; set-up: expressed in transfected cells; host or cells: CHO-K1 cells; conditions: for EC50: CHO-K1 cells, calcium flux; for Emax: CHO-K1, 5-HT2C, maximum functional response as percentage relative to the effect of serotonin
T1 sequence (P28335 33-458): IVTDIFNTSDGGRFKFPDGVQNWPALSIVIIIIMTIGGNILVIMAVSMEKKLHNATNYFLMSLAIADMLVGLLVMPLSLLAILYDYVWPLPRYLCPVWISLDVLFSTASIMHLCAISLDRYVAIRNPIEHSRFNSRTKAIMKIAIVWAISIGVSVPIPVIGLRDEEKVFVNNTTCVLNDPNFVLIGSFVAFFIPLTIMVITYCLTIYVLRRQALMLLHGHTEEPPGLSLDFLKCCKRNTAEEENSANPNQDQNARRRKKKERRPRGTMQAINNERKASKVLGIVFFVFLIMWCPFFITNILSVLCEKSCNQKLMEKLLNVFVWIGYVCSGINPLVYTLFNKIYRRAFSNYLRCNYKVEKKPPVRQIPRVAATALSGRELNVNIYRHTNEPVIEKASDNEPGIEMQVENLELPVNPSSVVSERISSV
Outline: (§1)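 Agonism was measured as FLIPR fluorescence increase (480/530 nm, 25° C) with Ca4 dye and 2.5 mM probenecid, in serum-starved CHO-K1 lines overexpressing human 5-HT2C or 5-HT2B. Six-point 1:10 dilutions from 10 μM (0.2% DMSO final) were fitted by 4-parameter logistics. Responses were normalised to serotonin to give EC50 and % Emax.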

5HT2B receptors = molecular target: T2, 5HT2B receptors (Homo sapiens, UniProt P41595); assay: Human 5-HT2B functional high throughput screening assay in CHO-K1 cells (calcium flux); format: cell-based; conditions: for EC50: CHO-K1 cells, calcium flux
T2 construct: expressed in transfected cells; host or cells: CHO-K1 cells
Outline: as §1

[1] = 5-HT2C agonist activity, read-out: EC50
[2] = 5-HT2B agonist activity, read-out: EC50
[3] = 5-HT2B, maximum functional response as percentage relative to the effect of serotonin

T2 sequence (P41595 whole entry): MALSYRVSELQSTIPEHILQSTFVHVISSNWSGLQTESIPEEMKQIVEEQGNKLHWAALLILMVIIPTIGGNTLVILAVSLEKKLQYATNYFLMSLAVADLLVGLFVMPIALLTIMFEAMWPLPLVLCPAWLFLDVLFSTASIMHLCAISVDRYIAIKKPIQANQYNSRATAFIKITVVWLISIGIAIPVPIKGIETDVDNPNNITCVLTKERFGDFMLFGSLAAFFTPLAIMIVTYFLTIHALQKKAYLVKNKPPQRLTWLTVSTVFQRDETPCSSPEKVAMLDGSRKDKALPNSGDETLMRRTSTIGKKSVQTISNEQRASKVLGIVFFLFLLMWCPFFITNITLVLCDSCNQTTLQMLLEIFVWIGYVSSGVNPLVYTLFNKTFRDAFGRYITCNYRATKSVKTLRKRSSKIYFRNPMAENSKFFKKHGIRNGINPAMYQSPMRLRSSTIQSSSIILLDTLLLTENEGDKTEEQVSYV

EC50 (5HT2C receptors; [1]) [nM] | Emax (5HT2C receptors; read-out: Emax) [%] | EC50 (5HT2B receptors; [2]) [nM] | Emax (5HT2B receptors; [3]) | Emax (5HT2B receptors; CHO-K1, 5-HT2B, maximum functional response as percentage relative to the effect of serotonin, read-out: Emax) [%] | SMILES | Emax (5HT2C receptors) [%] | EC50 (5HT2C receptors; EC50, 5-HT2C agonist activity) [nM] | Emax (5HT2B receptors; CHO-K1) [%] | EC50 (5HT2B receptors; EC50, 5-HT2B agonist activity) [nM]
6 | > 120 | > 10000 | inactive | – | Cc1ccc(-c2ccc3c(c2)C(=O)NC[C@@H]2CN(C)C[C@@H]32)o1 (relative stereo) [Example 203, Trans-2-methyl-8-(5-methylfuran-2-yl)-1,2,3,3a,4,5-hexahydrobenzo[e]pyrrolo[3,4-c]azepin-6(10bH)-one] | – | – | – | –
– | – | – | – | – | Brc1ccc2c(c1)[C@H]1CNC[C@@H]1CCO2 (relative stereo) [Example 214, Trans-9-bromo-2,3,3a,4,5,10b-hexahydro-1H-[1]benzoxepino[4,5-c]pyrrole] | > 120 | 2 | 50 | 20
600 | > 120 | 5000 | – | 15 | c1ccc(-c2ccc3c(c2)[C@H]2CNC[C@@H]2CCO3)cc1 (relative stereo) [Example 215, Trans-9-phenyl-2,3,3a,4,5,10b-hexahydro-1H-[1]benzoxepino[4,5-c]pyrrole] | – | – | – | –
40 | > 120 | > 10000 | inactive | – | O=C1NC[C@@H]2CN(Cc3ccccc3)C[C@H]2c2ccc(-c3ccc(F)cc3)cc21 (relative stereo) [Example 218, Trans-2-benzyl-8-(4-fluorophenyl)-1,2,3,3a,4,5-hexahydrobenzo[e]pyrrolo[3,4-c]azepin-6(10bH)-one] | – | – | – | –
– | > 120 | > 10000 | inactive | – | O=C1NC[C@@H]2CNC[C@H]2c2ccc(-c3ccc(F)cc3)cc21 (relative stereo) [Example 219, Trans-8-(4-fluorophenyl)-1,2,3,3a,4,5-hexahydrobenzo[e]pyrrolo[3,4-c]azepin-6(10bH)-one] | – | – | – | –
400 | > 120 | > 10000 | inactive | – | O=C1C[C@@H]2CN(Cc3ccccc3)C[C@H]2c2ccccc2N1 (relative stereo) [Example 222, Trans-2-benzyl-1,2,3,3a,4,10b-hexahydrobenzo[b]pyrrolo[3,4-d]azepin-5(6H)-one] | – | – | – | –
5000 | 60 | > 10000 | inactive | – | O=C1Cc2ccccc2[C@@H]2CN(Cc3ccccc3)C[C@H]2N1 (relative stereo) [Example 223, Trans-2-benzyl-1,2,3,3a,4,10b-hexahydrobenzo[d]pyrrolo[3,4-b]azepin-5(6H)-one] | – | – | – | –
– | – | – | – | – | CN1C[C@@H]2CNC[C@H]2c2ccc(F)cc2C1=O (relative stereo) [Example 224, Trans-8-fluoro-5-methyl-1,2,3,3a,4,5-hexahydrobenzo[c]pyrrolo[3,4-e]azepin-6(10bH)-one] | > 120 | – | 45 | 6000

SMILES | EC50 (5HT2C receptors; [1]) [nM] | Emax (5HT2C receptors; read-out: Emax) [%] | EC50 (5HT2B receptors; [2]) [nM] | Emax (5HT2B receptors; [3]) | Emax (5HT2B receptors; CHO-K1, 5-HT2B, maximum functional response as percentage relative to the effect of serotonin, read-out: Emax) [%] | Emax (5HT2C receptors) [%] | EC50 (5HT2C receptors; EC50, 5-HT2C agonist activity) [nM] | Emax (5HT2B receptors; CHO-K1) [%] | EC50 (5HT2B receptors; EC50, 5-HT2B agonist activity) [nM]
CN1C[C@H]2CNC(=O)c3cc(C4CCCCC4)ccc3[C@@H]2C1 (relative stereo) [Example 204, Trans-8-cyclohexyl-2-methyl-1,2,3,3a,4,5-hexahydrobenzo[e]pyrrolo[3,4-c]azepin-6(10bH)-one] | 500 | – | > 10000 | inactive | – | 80 | – | – | –
CN1C[C@H]2CNC(=O)c3cc(C4CCCC4)ccc3[C@@H]2C1 (relative stereo) [Example 205, Trans-8-cyclopentyl-2-methyl-1,2,3,3a,4,5-hexahydrobenzo[e]pyrrolo[3,4-c]azepin-6(10bH)-one] | 300 | – | > 10000 | inactive | – | 90 | – | – | –
CN1C[C@H]2CNC(=O)c3cc(OCc4ccccc4)ccc3[C@@H]2C1 (relative stereo) [Example 216, Trans-8-(benzyloxy)-2-methyl-1,2,3,3a,4,5-hexahydrobenzo[c]pyrrolo[3,4-e]azepin-6(10bH)-one] | – | – | – | inactive | – | > 120 | 2 | – | > 10000

From patent US8846951B2 (AbbVie Inc., priority 2009, dated 2014)
